In patent publication US6444696B1, “Pyrazole derivatives P38 MAP kinase inhibitors” (Syntex (U.S.A.) LLC, priority 1998, dated 2002):
Where a name gives a salt, the structure may show the parent alone.

What was measured:
p38 MAP kinase = biological target: T1, p38 MAP kinase (Homo sapiens, UniProt Q16539); test: Inhibition of p-38 (MAP) kinase, in vitro assay (transfer of γ-33P from ATP to Myelin Basic Protein); format: biochemical; conditions: phosphorylated recombinant p38 MAP kinase, MBP substrate, γ-33P-ATP, 30° C.; read-out: IC50, μM (p-38 inhibitory activity)
T1 construct: made in house; host or cells: E. coli (co-expressed with SEK-1 and MEKK to obtain the phosphorylated form)
T1 sequence (Q16539 whole entry): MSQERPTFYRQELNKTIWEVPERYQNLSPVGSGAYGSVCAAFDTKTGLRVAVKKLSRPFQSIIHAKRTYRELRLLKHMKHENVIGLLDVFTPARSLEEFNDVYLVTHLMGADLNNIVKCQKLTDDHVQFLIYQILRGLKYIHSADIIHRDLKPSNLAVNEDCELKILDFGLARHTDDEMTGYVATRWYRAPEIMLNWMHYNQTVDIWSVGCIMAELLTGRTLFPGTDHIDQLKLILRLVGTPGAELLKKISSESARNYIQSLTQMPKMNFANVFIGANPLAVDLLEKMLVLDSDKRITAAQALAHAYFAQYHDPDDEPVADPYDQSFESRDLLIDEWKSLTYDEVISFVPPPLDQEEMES
Experimental: The p-38 MAP kinase inhibitory activity of compounds of this invention in vitro was determined by measuring the transfer of the γ-phosphate from γ-^33P-ATP by p-38 kinase to Myelin Basic Protein (MBP), using the a minor modification of the method described in Ahn, N. G.; et al. J. Biol. Chem. Vol. 266(7), 4220-4227, (1991).
The phosphorylated form of the recombinant p38 MAP kinase was expressed with SEK-1 and MEKK in E. Coli and then purified by affinity chromatography using a Nickel column.
The phosphorylated p38 MAP kinase was diluted in kinase buffer (20 mM 3-(N-morpholino)propanesulfonic acid, pH 7.2, 25 mM β-glycerol phosphate, 5 mM ethylene glycol-bis(beta-aminoethyl ether)-N,N,N′,N′-tetraacetic acid, 1 mM sodium vanadate, 1 mM dithiothreitol, 40 mM magnesium chloride). Test compound dissolved in DMSO or only DMSO (control) was added and the samples were incubated for 10 min at 30° C. The kinase reaction was initiated by the addition of a substrate cocktail containing MBP and γ-^33P-ATP. After incubating for an additional 20 min at 30° C., the reaction was terminated by adding 0.75% phosphoric acid. The phosphorylated MBP was then separated from the residual γ-^33P-ATP using a phosphocellulose membrane (Millipore, Bedford, Mass.) and quantitated using a scintillation counter (Packard, Meriden, Conn.).
Compounds of the invention were active in this assay.

SMILES	melting point	IC50 (p38 MAP kinase)
Nc1c(C(=O)c2cccc(CCCN3CCS(=O)(=O)CC3)c2)cnn1-c1ccc(F)cc1F [compound 92, 5-amino-1-(2,4-difluorophenyl)-4-[3-{3-(S,S-dioxo-thiomorpholin-4-yl)propyl}benzoyl]pyrazole]	123.8 to 125.9 °C	–
Nc1c(C(=O)c2cccc(CCC3(O)CCCC3)c2)cnn1-c1ccc(F)cc1F [compound 95, 5-amino-1-(2,4-difluorophenyl)-4-[3-{2-(1-hydroxycyclopentyl)ethyl}benzoyl]pyrazole]	120.3 to 121 °C	–
Nc1c(C(=O)c2cccc(C(O)CO)c2)cnn1-c1ccc(F)cc1F (centres unmarked) [compound 103, 5-amino-1-(2,4-difluorophenyl)-4-[3-(1,2-dihydroxyethyl)benzoyl]pyrazole]	59 to 64 °C	–
Nc1c(C(=O)c2cccc(CN3CCC(O)CC3)c2)cnn1-c1ccc(F)cc1F [compound 133]	141.5 to 145.5 °C	–
COC(=O)OCC(COc1cccc(C(=O)c2cnn(-c3ccc(F)cc3)c2N)c1)OC(=O)OC (stereo in doubt) [compound 168, 5-amino-1-(4-fluorophenyl)-4-[3-{2(S),3-(dimethoxycarbonyloxy)propoxy}benzoyl]pyrazole]	62 to 65 °C	–
Nc1c(C(=O)c2cccc(CCc3cccnc3)c2)cnn1-c1ccc(F)cc1F [compound 91, 5-amino-1-(2,4-difluorophenyl)-4-[3-(3-pyridylethyl)benzoyl]pyrazole]	153.4 to 153.7 °C	–
Nc1c(C(=O)c2cccc(C#CCN3CCCCC3)c2)cnn1-c1ccc(F)cc1 [compound 9, 5-amino-1-(4-fluorophenyl)-4-[3-{3-(piperidin-1-yl)prop-1-ynyl}benzoyl]pyrazole.HCl]	–	1.32 µM
Nc1c(C(=O)c2cccc(CCCN3CCCCC3)c2)cnn1-c1ccc(F)cc1 (as salt: HCl) [compound 32, 5-amino-1-(4-fluorophenyl)-4-[3-(3-piperidin-1-ylpropyl)benzoyl]pyrazole]	227.1 to 277.7 °C	–
Nc1c(C(=O)c2cccc(CN3CCOCC3)c2)cnn1-c1ccc(F)cc1F [compound 131]	127.3 to 128.5 °C	–
Nc1c(C(=O)c2cccc(OCCN3CCOCC3)c2)cnn1-c1c(Cl)cccc1Cl [compound 98, 5-amino-1-(2,6-dichlorophenyl)-4-[3-(2-morpholin-4-ylethoxy)benzoyl]pyrazole]	144.2 to 145.1 °C	–
Nc1c(C(=O)c2cccc(CN3CCCCC3)c2)cnn1-c1ccc(F)cc1F [compound 86, 5-Amino-1-(2,4-difluorophenyl)-4-[3-(1-piperidinylmethyl)benzoyl]pyrazole]	116.6 to 118.6 °C	–
Cc1ccccc1-n1ncc(C(=O)c2cccc(C(O)CO)c2)c1N (centres unmarked) [compound 109, 5-amino-1-(2-methylphenyl)-4-[3-(1,2-dihydroxyethyl)benzoyl]pyrazole]	83 to 85.5 °C	–
Nc1c(C(=O)c2cccc(OCc3ccccn3)c2)cnn1-c1ccc(F)cc1 [compound 82, 5-amino-1-(4-fluorophenyl)-4-[3-(pyridin-2-ylmethoxy)benzoyl]pyrazole]	176.1 to 177.3 °C	–
CC(C)(O)C#Cc1cccc(C(=O)c2cnn(-c3ccc(F)cc3)c2N)c1 [compound 87, 5-amino-1-(4-fluorophenyl)-4-[3-(3-hydroxy-3-methyl-but-1-ynyl)benzoyl]pyrazole]	152.6 to 153.1 °C	–
Nc1c(C(=O)c2cccc(CCCN3CCOCC3)c2)cnn1-c1ccc(F)cc1 [compound 6, 5-Amino-1-(4-fluorophenyl)-4-[3-(3-morpholin-4-ylpropyl)benzoyl]pyrazole hydrochloride]	–	1.74 µM
Nc1c(C(=O)c2cccc(OCCn3ncccc3=O)c2)cnn1-c1ccc(F)cc1 [compound 128]	174.5 to 178 °C	–
Nc1c(C(=O)c2cccc(OCCN3CCOCC3)c2)cnn1-c1ccccc1F [compound 97, 5-amino-1-(2-fluorophenyl)-4-[3-(2-morpholin-4-ylethoxy)benzoyl]pyrazole]	130.8 to 135.1 °C	–
Nc1c(C(=O)c2cccc(C#CC3(O)CCCC3)c2)cnn1-c1ccc(F)cc1F [compound 94, 5-amino-1-(2,4-difluorophenyl)-4-[3-{2-(1-hydroxycyclopentyl)ethynyl}benzoyl]pyrazole]	176.8 to 177.1 °C	–

SMILES	melting point	IC50 (p38 MAP kinase)
Cc1ccc(-n2ncc(C(=O)c3cccc(-c4cccnc4)c3)c2N)cc1 (as salt: HCl) [compound 65, 5-amino-1-(4-methylphenyl)-4-[3-(pyridin-3-yl)benzoyl]pyrazole]	281.3 to 282.8 °C	–
COc1cccc(-n2ncc(C(=O)c3cccc(-c4cccnc4)c3)c2N)c1 (as salt: HCl) [compound 66, 5-amino-1-(3-methoxyphenyl)-4-[3-(pyridin-3-yl)benzoyl]pyrazole]	256.1 to 256.5 °C	–
Nc1c(C(=O)c2cccc(OC[C@@H]3COC(=O)O3)c2)cnn1-c1ccc(F)cc1 [compound 171, 5-amino-1-(4-fluorophenyl)-4-{3-[(1,3-dioxolan-2-on-4(R)-yl)methoxy]benzoyl}pyrazole]	144.3 to 144.9 °C	–
CN1CCN(CCCc2cccc(C(=O)c3cnn(-c4ccc(F)cc4)c3N)c2)CC1 (as salt: HCl) [compound 30, 5-amino-1-(4-fluorophenyl)-4-{3-[3-(4-methylpiperazin-1-yl)propyl]benzoyl}pyrazole]	254.5 to 254.9 °C	–
CC(=O)OCC(COc1cccc(C(=O)c2cnn(-c3ccc(F)cc3)c2N)c1)OC(C)=O (stereo in doubt) [compound 165, 5-amino-1-(4-fluorophenyl)-4-[3-{2(S),3-(diacetoxy)propoxy}benzoyl]pyrazole]	91.4 to 92.7 °C	–
Nc1c(C(=O)c2cccc(-c3cccnc3)c2)cnn1-c1ccc(S(N)(=O)=O)cc1 (as salt: HCl) [compound 68, 5-amino-1-(4-sulfamoylphenyl)-4-[3-(pyridin-3-yl)benzoyl]pyrazole]	> 300 °C	–
Nc1c(C(=O)c2cccc(OCC(=O)N3CCOCC3)c2)cnn1-c1ccc(F)cc1 [compound 35, 5-amino-1-(4-fluorophenyl)-4-[3-(morpholin-4-ylcarbonylmethyloxy)benzoyl]pyrazole]	124.3 to 126.6 °C	–
Nc1c(C(=O)c2cccc(C#CCN3CCOCC3)c2)cnn1-c1ccc(F)cc1 [compound 3, 5-Amino-1-(4-fluorophenyl)-4-[3-{3-(morpholin-4-yl)prop-1-ynyl}benzoyl]pyrazole]	–	1.78 µM
Nc1c(C(=O)c2cccc(CCS(N)(=O)=O)c2)cnn1-c1ccc(F)cc1 [compound 50, 5-Amino4-[3-(2-aminosulfonylethyl)benzoyl]-1-(4-fluorophenyl)pyrazole]	–	1.25 µM
CCC1(C)OC[C@H](COc2cccc(C(=O)c3cnn(-c4ccc(F)cc4)c3N)c2)O1 (stereo partly drawn) [compound 174, 5-amino-1-(4-fluorophenyl)-4-{3-[(2-methyl-2-ethyl-1,3-dioxolan-4(S)-yl)methoxy]benzoyl}pyrazole]	81.1 to 83 °C	–
Nc1c(C(=O)c2cccc(OCC(=O)O)c2)cnn1-c1ccc(F)cc1 [compound 119]	215.9 to 216.2 °C	–
CCC1(CC)OC[C@H](COc2cccc(C(=O)c3cnn(-c4ccc(F)cc4)c3N)c2)O1 [compound 173, 5-amino-1-(4-fluorophenyl)-4-{3-[(2,2-diethyl-1,3-dioxolan-4(S)-yl)methoxy]benzoyl}pyrazole]	74.1 to 75.7 °C	–
CCNC(=O)Oc1cccc(C(=O)c2cnn(-c3ccc(F)cc3)c2N)c1	201.2 to 202.8 °C	–
Nc1c(C(=O)c2cccc(OCCN3CCOCC3)c2)cnn1-c1ccc(F)cc1 [compound 14, 5-Amino-1-(4-fluorophenyl)-4-[3-{2-(morpholin-4-yl)ethoxy}benzoyl]pyrazole hydrochloride]	–	1.27 µM
Nc1c(C(=O)c2cccc(C#Cc3cccnc3)c2)cnn1-c1ccc(F)cc1F [compound 88, 5-amino-1-(2,4-difluorophenyl)-4-[3-(3-pyridylethynyl)benzoyl]pyrazole]	183.5 to 184 °C	–
CC1(C)OCC(COc2cccc(C(=O)c3cnn(-c4ccc(F)cc4)c3N)c2)O1 (stereo in doubt) [compound 170, 5-amino-1-(4-fluorophenyl)-4-{3-[(2,2-dimethyl-1,3-dioxolan-4(S)-yl)methoxy]benzoyl}pyrazole]	78.3 to 80 °C	–
CC(C)NC(=O)Oc1cccc(C(=O)c2cnn(-c3ccc(F)cc3)c2N)c1	225.2 to 230.1 °C	–
